Test results: patent publication US20250115636A1, “PEPTIDOMIMETIC INHIBITORS OF PROTEIN N-TERMINAL […] 1, COMPOSITION, AND METHOD OF USE” (Purdue Research Foundation, priority 2022, published 2025)
Read-outs that look alike come from different tables or passages of the source.

Key:
[1] = in vitro; settings: PAMPA
Description: The stock solutions in 10 mM DMSO was diluted with PBS to a final concentration of 200 μM with 2% DMSO (v/v). Verapamil was added as a control. The pre-coated PAMPA plate system was warmed to room temperature, and the donor plate (bottom) was filled with 300 μL of the diluted sample solution while the acceptor plate (top) was filled with 200 μL of the buffer. […] The permeability of each compound was calculated using the formula:
• CD (t)=compound concentration in donor well at time t. • CA (t)=compound concentration in acceptor well at time t. • VD=donor well volume • VA=acceptor well volume • A=filter area • t=incubation time

[2] = biological target: T1, NTMT1 (Homo sapiens, UniProt Q9BV86); assay: NTMT1 biochemical assay (SAHH-coupled fluorescence assay)
T1 construct: made in house
T1 sequence (Q9BV86 1-223): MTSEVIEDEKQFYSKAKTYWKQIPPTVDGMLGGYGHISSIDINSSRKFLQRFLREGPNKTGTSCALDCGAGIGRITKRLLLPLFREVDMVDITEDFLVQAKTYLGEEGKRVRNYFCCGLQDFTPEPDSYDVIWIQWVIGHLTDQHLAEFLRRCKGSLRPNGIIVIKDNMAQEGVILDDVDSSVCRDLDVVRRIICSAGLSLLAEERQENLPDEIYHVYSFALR

[3] = system: HCT116 cells; assay: Cytotoxicity / cell viability, alamarBlue (resazurin) assay; format: cell-based; settings: Homo sapiens, HCT-116, normal HCT116 cells
Text: To test this hypothesis, compound 1a was selected to evaluate its effects on both wild-type and NTMT1 knockout HCT116 cells (FIG. 3B).

[4] = system: cellular α-N-terminal methylation level in HCT116 cells; assay: Cellular N-terminal methylation assay (Western blot, anti-me3-SPK); format: cell-based, human; settings: for IC50: Homo sapiens, HCT-116, HCT116 cells, Western blot, n = 2
Description: (§1) FIGS. 4A-4C. Cellular N-terminal methylation assay of GD562 (1d), GD564 (1f), and GD573 (1e) in HCT116 cells. Representative Western blot results of the effects of GD562 (0-300 μM) on the cellular methylation level (n=2) (FIG. 4A). Representative Western blot results of the effects of GD564 (0-100 μM) on the cellular methylation level (n=2) (FIG. 4B). Representative Western blot results of the effects of GD573 (0-300 μM) on the cellular methylation level (n=2) (FIG. 4C). Image quantification was done using ImageJ software (NIH).
Cellular N-methylation level. […] The membrane was then blocked for 1 hour in 5% milk TBST solution and washed with 1×TBST solution three times. […] Image quantification was done using ImageJ software (NIH).

[5] = biological target: T1, NTMT1; settings: cited from earlier work
[6] = system: me3-RCC1; settings: cited from earlier work
[7] = system: me3-SET; settings: at 300 μM in HCT116 cells, previously reported; cited from earlier work
[8] = system: panel of 41 methyltransferases; settings: among a panel of 41 methyltransferases; cited from earlier work
[9] = system: me3-SET; assay: Cellular N-terminal methylation assay, me3-SET; format: cell-based; settings: Homo sapiens, HCT-116, HCT116 cells
Description: as §1, with “.” for “FIGS. 4A-4C. Cellular N-terminal methylation assay of GD562 (1d), GD564 (1f), and GD573 (1e) in HCT116 cells.”
(§2) […]. Cellular N-methylation level. […] The membrane was then blocked for 1 hour in 5% milk TBST solution and washed with 1×TBST solution three times. […] Image quantification was done using ImageJ software (NIH).

[10] = system: me3-RCC1; assay: Cellular N-terminal methylation assay, me3-RCC1; format: cell-based, human; settings: HCT116 cells; for IC50: Homo sapiens, HCT-116
Description: as §1, with “.” for “FIGS. 4A-4C. Cellular N-terminal methylation assay of GD562 (1d), GD564 (1f), and GD573 (1e) in HCT116 cells.”
as §2

[11] = recombinant NTMT1, n = 2, mean ± SD

SMILES | Papp at 5 h, 200 μM [1] [×10⁻⁶ cm/s] | IC50 [2, 11] [µM] | GI50 [3] [µM] | IC50 [4] [µM] | other results
NCCCC[C@H](NC(=O)[C@@H]1CCCN1C(=O)Cc1cccc2ccccc12)C(=O)NCCc1cccc(-c2ccccc2)c1 [Compound 1k] | 1.3 | 0.69 ± 0.08 | 48 to 135 | – | Permeability [1]: ±0.4 10^−6 cm/s
NCCCC[C@H](NC(=O)[C@@H]1CCCN1C(=O)Cc1cccc2ccccc12)C(=O)NCc1ccc(Br)cc1 [Compound 1h] | 0.9 ± 0.2 | 0.82 ± 0.07 | – | < 300 | –
NCCCC[C@H](NC(=O)[C@@H]1CCCN1C(=O)Cc1cccc2ccccc12)C(=O)NCc1cccc(Br)c1 [Compound 1g] | 0.6 ± 0.1 | 0.58 ± 0.03 | – | < 300 | –
NCCCC[C@H](NC(=O)[C@@H]1CCCN1C(=O)Cc1cccc2ccccc12)C(=O)Nc1ccc(Br)cc1 [Compound 1b] | – | 0.18 ± 0.007 | 48 to 135 | – | –
NCCCC[C@H](NC(=O)[C@@H]1CCCN1C(=O)Cc1cccc2ccccc12)C(=O)Nc1ccccc1C(N)=O [DC541] | – | 0.34 ± 0.03 | – | – | IC50/IC50 (DC541) ([2]; ratio of NTMT1 IC50 to that of DC541): 1.0; Decrease in inhibitory activity on recombinant NTMT1 compared to DC113 [5]: ~3 fold; IC50 ([6]; HCT116, previously reported, read-out: Cellular IC50 on the me3-RCC1 level): ~100 µM; Enhancement of cellular inhibition compared to DC113 [6]: about 10 fold; Inhibition of me3-SET level [7]: did not show any inhibition
NCCCC[C@H](NC(=O)[C@@H]1CCCN1C(=O)Cc1cccc2ccccc12)C(=O)Nc1cccc(Br)c1 [Compound 1a] | – | 0.17 ± 0.008 | 48 to 135 | – | –
NCCCC[C@H](NC(=O)[C@@H]1CCCN1C(=O)Cc1cccc2ccccc12)C(=O)NCc1ccccc1 [Compound 1c] | 0.24 ± 0.06 | 0.91 ± 0.03 | > 300 | < 300 | –
NCCCC[C@H](NC(=O)[C@@H]1CCCN1C(=O)Cc1cccc2ccccc12)C(=O)NCC1CCCCC1 [Compound 1f] | 0.47 | 0.94 ± 0.03 | > 300 | ~100 | –
NCCCC[C@H](NC(=O)[C@@H]1CCCN1C(=O)Cc1ccc(O)cc1)C(=O)N[C@@H](CCCN=C(N)N)C(N)=O [BM30] | – | – | – | – | IC50 ([5]; previously reported inhibitors): 0.89 ± 0.1 µM; Selectivity for NTMT1/2 [8]: over 100 fold
NCCCC[C@H](NC(=O)[C@@H]1CCCN1C(=O)Cc1cccc2ccccc12)C(=O)NCCc1ccc(-c2ccccc2)cc1 [Compound 1j] | 0.9 | – | – | – | IC50 [2]: 2.5 ± 0.09 µM
NCCCC[C@H](NC(=O)[C@@H]1CCCN1C(=O)Cc1cccc2ccccc12)C(=O)NCCCc1ccccc1 [Compound 1e] | 0.17 ± 0.08 | 0.65 ± 0.01 | > 300 | ~100 | –
NCCCC[C@H](NC(=O)[C@@H]1CCCN1C(=O)Cc1cccc2ccccc12)C(=O)NCCc1ccccc1 [Compound 1d] | 0.26 ± 0.06 | – | > 300 | ~50 | Difference between enzymatic and cellular IC50 values [4]: ~50 fold; IC50 ([9]; read-out: Cellular IC50 on N-terminal methylation of SET): ~50 µM; IC50 ([9]; read-out: Cellular IC50 on me3-SET): ~50 µM; Increase in cellular inhibition activity on me3-RCC1 compared to DC541 [10]: over 2 fold; IC50 ([10]; read-out: Cellular IC50 on N-terminal methylation of RCC1): ~50 µM; IC50 ([10]; read-out: Cellular IC50 on me3-RCC1): ~50 µM
